# According to ChEMBL document CHEMBL3044988, “QSAR analysis of B-ring-modified diaryl ether derivatives as a InhA inhibitors” (Med Chem Res, 2012):
# Assays:
# [1] = Partition coefficient, log P of the compound; assay type: physicochemical; conditions: octanol/water
# [2] = target: T1, Enoyl-[acyl-carrier-protein] reductase [NADH] (Mycobacterium tuberculosis, UniProt P9WGR1)
# T1 sequence (P9WGR1 whole entry): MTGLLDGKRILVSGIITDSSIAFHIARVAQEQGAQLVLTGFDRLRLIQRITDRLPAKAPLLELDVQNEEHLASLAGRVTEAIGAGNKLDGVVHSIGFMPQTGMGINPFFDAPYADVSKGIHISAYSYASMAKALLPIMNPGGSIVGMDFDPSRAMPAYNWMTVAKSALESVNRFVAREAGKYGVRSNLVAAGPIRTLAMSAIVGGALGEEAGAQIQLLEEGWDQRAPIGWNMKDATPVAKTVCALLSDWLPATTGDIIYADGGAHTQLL
# Description: Inhibition of Mycobacterium tuberculosis InhA
SMILES,logP ([1]; read-out: logP),also measured
CCCCCCc1ccc(Oc2ccc(CN3CCN(C)CC3)cc2)c(O)c1,5.33,
CCCCCCc1ccc(Oc2ccccc2CN2CCN(C)CC2)c(O)c1,5.33,
CCCCCCc1ccc(Oc2ccncc2)c(O)c1,4.33,
CCCCCCc1ccc(Oc2ccc(NC(C)=O)cc2)c(O)c1,5,
CCCCCCc1ccc(Oc2ccccc2[N+](=O)[O-])c(O)c1,,logP [1]: 4.489
CCCCCCc1ccc(Oc2ccccc2N)c(O)c1,4.42,
CCCCCCc1ccc(Oc2ncccn2)c(O)c1,4.13,
CCCCCCc1ccc(Oc2ccccn2)c(O)c1,5.03,
CCCCCCc1ccc(Oc2ccccc2NC(C)=O)c(O)c1,5,
CCCCCCc1ccc(Oc2ccccc2)c(O)c1,5.64,
CCCCCCc1ccc(Oc2cccc(N)c2)c(O)c1,4.42,
CCCCCCc1ccc(Oc2ccc(NC(=O)c3ccno3)cc2)c(O)c1,4.86,
CCCCCCc1ccc(Oc2ccc(NC(=O)C(=O)O)cc2)c(O)c1,5.59,
CCCCCCc1ccc(Oc2cnccn2)c(O)c1,4.12,
CCCCCCc1ccc(Oc2ccc([N+](=O)[O-])cc2)c(O)c1,,logP [1]: 4.489
CCCCCCc1ccc(Oc2cccnc2)c(O)c1,4.33,
CCCCCCc1ccc(Oc2cccc(NC(=O)c3ccno3)c2)c(O)c1,4.86,
CCCCCCc1ccc(Oc2cccc([N+](=O)[O-])c2)c(O)c1,4.49,
CCCCCCc1ccc(Oc2ccc(N)cc2)c(O)c1,4.42,
CCCCCCc1ccc(Oc2cccc(NC(C)=O)c2)c(O)c1,5,IC50 [2]: 579 nM
CCCCCCc1ccc(Oc2ccccc2NC(=O)c2ccno2)c(O)c1,4.86,
